Source: article PMC10384010, “Chromatographic Data in Statistical Analysis of BBB Permeability Indices” (Membranes, 2023)

What was measured:
[1] = Reversed-phase TLC on RP-2 silanized plates (Rf); format: physicochemical; settings: silica gel 60 RP-2 F254 silanized; water:methanol:acetonitrile 60:20:20, ammonium acetate pH 7.4
[2] = HPLC on IAM (immobilized artificial membrane) column, retention factor; format: physicochemical; settings: IAM.PC.DD.2 column; for k(IAM) retention factor: 10 mM phosphate buffer pH 7.4:acetonitrile 80:20; for logkIAM: logarithm of retention factor, phosphate buffer pH 7.4:acetonitrile 80:20
[3] = plasma protein binding, given as fraction; ref Drugbank; cited from earlier work
[4] = Normal-phase TLC on silica gel 60 F254 (Rf); format: physicochemical; settings: water:methanol:acetonitrile 60:20:20, ammonium acetate pH 7.4

Compound | RP (Rf from RP-2 TLC plate) [1] | k(IAM) retention factor [2] | logkIAM [2] | PB (protein binding) [3] | NP (Rf from NP TLC plate) [4]
COc1cc2nc(N3CCN(C(=O)C4COc5ccccc5O4)CC3)nc(N)c2cc1OC (centres unmarked) [doxazosin] | 0.75 | 0.22 | -0.66 |  | 
CN1C(=O)C(O)N=C(c2ccccc2)c2cc(Cl)ccc21 (centres unmarked) [temazepam] |  | 6.74 | 0.83 |  | 
COc1cccc(C2(O)CCCCC2CN(C)C)c1 (centres unmarked) [tramadol] |  |  |  | 0.2 | 
CN[C@@H](C)[C@@H](O)c1ccccc1 [pseudoephedrine] |  | 2.21 | 0.34 |  | 
CCC1(c2ccccc2)C(=O)NCNC1=O [primidone] | 0.93 |  |  |  | 0.9
CCN(CC)CC#CCOC(=O)C(O)(c1ccccc1)C1CCCCC1 (centres unmarked) [oxybutinin] | 0.29 | 49.68 | 1.70 |  | 0.68
CCCc1cc(=O)[nH]c(=S)[nH]1 [propylthiouracil] |  |  |  | 0.82 | 
NC(N)=Nc1nc(CSCCC(N)=NS(N)(=O)=O)cs1 [famotidine] | 0.98 |  |  |  | 0.7
gentamycin | 0.911 |  |  |  | 0.96
Cc1ccc(-c2nc3ccc(C)cn3c2CC(=O)N(C)C)cc1 [zolpidem] |  | 2.60 | 0.42 |  | 
Cn1c(=O)c2c(ncn2C)n(C)c1=O [caffeine] |  | 0.18 | -0.75 |  | 0.82
CC(C)Cc1ccc(C(C)C(=O)O)cc1 (centres unmarked) [ibuprofen] |  | 0.86 | -0.07 |  | 
CCCCC(=O)N(Cc1ccc(-c2ccccc2-c2nnn[nH]2)cc1)[C@H](C(=O)O)C(C)C [valsartan] |  | 0.08 | -1.10 | 0.955 | 
COC(=O)c1ccc(O)cc1 [methyl paraben] | 0.85 | 1.94 | 0.29 |  | 0.97
PABA |  | 0.01 | -1.88 |  | 
CC(C)c1nc(N(C)S(C)(=O)=O)nc(-c2ccc(F)cc2)c1/C=C/[C@@H](O)C[C@@H](O)CC(=O)O [rosuvastatin] | 0.92 | 0.96 | -0.02 |  | 0.9
OC(Cn1cncn1)(Cn1cncn1)c1ccc(F)cc1F [fluconazole] | 0.9 |  |  |  | 0.87
CN(C)CCC[C@@]1(c2ccc(F)cc2)OCc2cc(C#N)ccc21 [escitalopram] |  | 32.08 | 1.51 | 0.56 | 
CCCC(=O)Nc1ccc(OCC(O)CNC(C)C)c(C(C)=O)c1 (centres unmarked) [acebutolol] |  |  |  | 0.26 | 
CN(C)C(=O)C(CCN1CCC(O)(c2ccc(Cl)cc2)CC1)(c1ccccc1)c1ccccc1 [loperamide] | 0.75 |  |  |  | 0.68
Cn1c(=O)c2[nH]cnc2n(C)c1=O [theophylline] |  | 0.12 | -0.94 |  | 
CC1COc2c(N3CCN(C)CC3)c(F)cc3c(=O)c(C(=O)O)cn1c23 (centres unmarked) [ofloxacin] |  |  |  | 0.32 | 0.24
Cc1nc2n(c(=O)c1CCN1CCC(c3noc4cc(F)ccc34)CC1)CCCC2 [risperidone] |  | 4.83 | 0.68 |  | 
Cc1nnc2n1-c1ccc(Cl)cc1C(c1ccccc1)=NC2 [alprazolam] |  | 3.14 | 0.50 | 0.8 | 
CCCNCC(O)COc1ccccc1C(=O)CCc1ccccc1 (centres unmarked) [propafenone] | 0.56 |  |  |  | 0.57
COc1ccc2cc([C@H](C)C(=O)O)ccc2c1 [naproxen] | 0.88 |  |  |  | 0.92
C[C@H](CS)C(=O)N1CCC[C@H]1C(=O)O [captopril] |  | 0.01 | -2.19 |  | 0.77

Compound | RP (Rf from RP-2 TLC plate) [1] | k(IAM) retention factor [2] | logkIAM [2] | PB (protein binding) [3] | NP (Rf from NP TLC plate) [4]
O=C(O)c1cn(C2CC2)c2cc(N3CCNCC3)c(F)cc2c1=O [ciprofloxacin] | 0.38 |  |  |  | 0.11
CC(C)NCC(O)COc1cccc2ccccc12 (centres unmarked) [propranolol] |  | 28.09 | 1.45 |  | 0.54
C[C@H]1O[C@@H](O[C@H]2[C@@H](O)C[C@H](O[C@H]3[C@@H](O)C[C@H](O[C@H]4CC[C@@]5(C)[C@H](CC[C@@H]6[C@@H]5C[C@@H](O)[C@]5(C)[C@@H](C7=CC(=O)OC7)CC[C@]65O)C4)O[C@@H]3C)O[C@@H]2C)C[C@H](O)[C@@H]1O [digoxin] |  | 3.69 | 0.57 |  | 
CN(C)CCCN1c2ccccc2CCc2ccc(Cl)cc21 [clomipramine] |  |  |  |  | 0.33
Nc1cc(N2CCCCC2)nc(N)[n+]1[O-] [minoxidil] |  |  |  |  | 0.43
Cc1cnc(NC(=O)C2=C(O)c3ccccc3S(=O)(=O)N2C)s1 [meloxicam] |  | 0.49 | -0.31 |  | 0.99
O=C1Nc2ccc(Cl)cc2C(c2ccccc2)=NC1O (centres unmarked) [oxazepam] | 0.83 | 4.78 | 0.68 |  | 0.93
CCOC(=O)C1=C(COCCN)NC(C)=C(C(=O)OC)C1c1ccccc1Cl (centres unmarked) [amlodipine] | 0.61 | 98.90 | 2.00 |  | 
CC(C(=O)O)c1cccc(C(=O)c2ccccc2)c1 (centres unmarked) [ketoprofen] |  | 0.20 | -0.71 |  | 
COCCCC/C(=N\OCCN)c1ccc(C(F)(F)F)cc1 [fluvoxamine] |  |  |  |  | 0.34
CC(N)C12CC3CC(CC(C3)C1)C2 (centres unmarked) [rimantadine] | 0.95 |  |  |  | 0.92
O=C(N[C@H](CO)[C@H](O)c1ccc([N+](=O)[O-])cc1)C(Cl)Cl [chloramphenikol] | 0.89 | 1.08 | 0.03 |  | 0.99
CC(C)NCC(O)COc1ccc(CC(N)=O)cc1 (centres unmarked) [atenolol] | 0.58 |  |  |  | 0.34
O=C(O)COCCN1CCN([C@H](c2ccccc2)c2ccc(Cl)cc2)CC1 [levocetrizine] |  |  | 0.58 |  | 0.63
Cc1cc2c(s1)Nc1ccccc1N=C2N1CCN(C)CC1 [olanzapine] |  | 20.31 | 1.31 |  | 
O=C1CC2(CCCC2)CC(=O)N1CCCCN1CCN(c2ncccn2)CC1 [buspirone] |  | 7.00 | 0.84 |  | 0.57
CCN(CC)CCNC(=O)c1cc(Cl)c(N)cc1OC [metoclopramide] |  | 6.16 | 0.79 |  | 
Cc1ccc(O)c([C@H](CCN(C(C)C)C(C)C)c2ccccc2)c1 [tolterodine] |  | 0.21 | -0.68 |  | 
CC(C)(O)c1ccccc1CC[C@@H](SCC1(CC(=O)O)CC1)c1cccc(/C=C/c2ccc3ccc(Cl)cc3n2)c1 [montelukast] |  | 99.10 | 2.00 |  | 
CCCCc1oc2ccccc2c1C(=O)c1cc(I)c(OCCN(CC)CC)c(I)c1 [amiodarone] | 0.33 |  |  |  | 
CN(C)CCCC1(c2ccc(F)cc2)OCc2cc(C#N)ccc21 (centres unmarked) [citalopram] |  |  |  | 0.8 | 
CC(C)c1c(C(=O)Nc2ccccc2)c(-c2ccccc2)c(-c2ccc(F)cc2)n1CC[C@@H](O)C[C@@H](O)CC(=O)O [atorvastatin] | 0.8 |  |  |  | 
CCC(C)(C)C(=O)O[C@H]1C[C@@H](C)C=C2C=C[C@H](C)[C@H](CC[C@@H]3C[C@@H](O)CC(=O)O3)[C@H]21 [simvastatin] | 0.66 |  |  |  | 0.19
CCN(CC)CCCC(C)Nc1ccnc2cc(Cl)ccc12 (centres unmarked) [chloroquine] |  |  |  | 0.55 | 
Clc1ccc2c(c1)CCc1cccnc1C2=C1CCNCC1 [desloratidine] |  | 50.45 | 1.70 |  | 
Oc1ncnc2[nH]ncc12 [allopurinnol] | 0.97 |  |  |  | 0.89
